Data published in the supplement of paper PMC11208160.
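Also: IS621 recombinase and bridge RNA in Escherichia coli cells.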

Test: recombinant barcode read abundance after kanamycin selection (control-corrected) (log10(CPM+1)); higher = more efficient recombination; sequences stand for … in AGTGCAGAGAAAATCGGCCAGTTTTCTCTGCCTGCAGTCCGCATGCCGT…AGATTTATGCAGCGGACTGCCTTTCTCCCAAAGTGATAAACCGGACAGTATCATGGACCGGTTTTCCCGGTAATCCGTATTTGCAAGGTTGGTTTCACT; site = the 11-nt target
How it was run: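 Recombination efficiency draws on barcodes counted at recombinant junctions in a pooled E. coli screen of targets paired with IS621 bridge RNA target-binding loops. The counts were converted to counts per million, averaged and corrected against the chloramphenicol/ampicillin LB agar control, then reported as log10(CPM+1). Selection plates held chloramphenicol/ampicillin/kanamycin with 0.1 mM IPTG, with two replicates per condition.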
In the case of “CTTCAAGCTTGGGTTCTAACCTGTTGCCT (site CTTCAAGCTAG)”, the “recombinant barcode read abundance (log10)” value is reported as 0.983.
In the case of “CTTCGAACTTGGGTTCTAACCTGTTGCAT (site ACATACCCTCA)”, the “recombinant barcode read abundance (log10)” value is reported as 0.609.
For “CTTCGAACTTGGGTTCTAACCTGTTGCAT (site CTTCGAACTAT)”, the “recombinant barcode read abundance (log10)” value was 0.407.
For “CTTCGACCTTGGGTTCTAACCTGTTGCAT (site CTTCGACCTAT)”, the “recombinant barcode read abundance (log10)” value was 2.04.
For “CTTCGACCTTGGGTTCTAACCTGTTGCAT (site CTTGGACCTCT)”, the “recombinant barcode read abundance (log10)” value was 0.0729.
In the case of “CTTCGAGCTTGGGTTCTAACCTGTTGCAG (site CTTCGAGCTCA)”, the “recombinant barcode read abundance (log10)” value is reported as 0.172.
With “CTTCGAGCTTGGGTTCTAACCTGTTGCAG (site CTTCGAGCTCC)” the “recombinant barcode read abundance (log10)” value was 0.288.
For “CTTCGAGCTTGGGTTCTAACCTGTTGCAG (site CTTCGAGCTCG)”, the “recombinant barcode read abundance (log10)” value was 0.168.
With “CTTCGAGCTTGGGTTCTAACCTGTTGCAG (site CTTCGAGCTCT)” the “recombinant barcode read abundance (log10)” value was 1.35.
With “CTTCGCCCTTGGGTTCTAACCTGTTGCTT (site ACAGTGGCTCC)” the “recombinant barcode read abundance (log10)” value was 0.0481.
For “CTTCGCCCTTGGGTTCTAACCTGTTGCTT (site CTTCGCCCTAA)”, the “recombinant barcode read abundance (log10)” value was 0.109.
With “CTTCGGACTTGGGTTCTAACCTGTTGCAA (site CTTCGGACTTT)” the “recombinant barcode read abundance (log10)” value was 1.62.
With “CTTCGGACTTGGGTTCTAACCTGTTGCAA (site CTTCGGGCTTT)” the “recombinant barcode read abundance (log10)” value was 0.223.
For “CTTCGGGCTTGGGTTCTAACCTGTTGCAG (site CATCGGGCTCT)”, the “recombinant barcode read abundance (log10)” value was 1.25.
For “CTTCGGGCTTGGGTTCTAACCTGTTGCAG (site CCTCGGGCTCT)”, the “recombinant barcode read abundance (log10)” value was 1.3.
With “CTTCGGGCTTGGGTTCTAACCTGTTGCAG (site CGTCGGGCTCT)” the “recombinant barcode read abundance (log10)” value was 0.0132.
For “CTTCGGGCTTGGGTTCTAACCTGTTGCAG (site CTTCGGGCTCT)”, the “recombinant barcode read abundance (log10)” value was 1.96.
With “CTTCGTCCTTGGGTTCTAACCTGTTGCAT (site CTTCGTCCTAA)” the “recombinant barcode read abundance (log10)” value was 0.0066.
For “CTTCGTCCTTGGGTTCTAACCTGTTGCAT (site CTTCGTCCTAC)”, the “recombinant barcode read abundance (log10)” value was 0.133.
For “CTTCGTCCTTGGGTTCTAACCTGTTGCAT (site CTTCGTCCTAG)”, the “recombinant barcode read abundance (log10)” value was 0.139.
With “CTTCGTCCTTGGGTTCTAACCTGTTGCAT (site CTTCGTCCTAT)” the “recombinant barcode read abundance (log10)” value was 0.658.
In the case of “CTTGAATCTTGGGTTCTAACCTGTTGCCT (site CTTAAATCTAG)”, the “recombinant barcode read abundance (log10)” value is reported as 0.117.
For “CTTGAATCTTGGGTTCTAACCTGTTGCCT (site CTTCAATCTAG)”, the “recombinant barcode read abundance (log10)” value was 0.0867.
For “CTTGAATCTTGGGTTCTAACCTGTTGCCT (site CTTGAATCTAG)”, the “recombinant barcode read abundance (log10)” value was 0.379.
For “CTTGAATCTTGGGTTCTAACCTGTTGCCT (site CTTTAATCTAG)”, the “recombinant barcode read abundance (log10)” value was 0.337.
For “CTTGAGACTTGGGTTCTAACCTGTTGCCT (site CTTCAGGCTAG)”, the “recombinant barcode read abundance (log10)” value was 0.256.
For “CTTGAGACTTGGGTTCTAACCTGTTGCCT (site CTTGAGACTAG)”, the “recombinant barcode read abundance (log10)” value was 2.02.
With “CTTGGACCTTGGGTTCTAACCTGTTGCAG (site CTTCGACCTAT)” the “recombinant barcode read abundance (log10)” value was 0.00985.
With “CTTGGACCTTGGGTTCTAACCTGTTGCAG (site CTTGGACCTCT)” the “recombinant barcode read abundance (log10)” value was 2.55.
With “CTTGGACCTTGGGTTCTAACCTGTTGCCT (site CTTGGAACTAG)” the “recombinant barcode read abundance (log10)” value was 0.222.
In the case of “CTTGGACCTTGGGTTCTAACCTGTTGCCT (site CTTGGACCTAG)”, the “recombinant barcode read abundance (log10)” value is reported as 1.74.
With “CTTGGACCTTGGGTTCTAACCTGTTGCCT (site CTTGGAGCTAG)” the “recombinant barcode read abundance (log10)” value was 0.0408.
For “CTTGGACCTTGGGTTCTAACCTGTTGCCT (site CTTGGATCTAG)”, the “recombinant barcode read abundance (log10)” value was 0.113.
With “CTTGGTTCTTGGGTTCTAACCTGTTGCCT (site CTTGGGTCTAG)” the “recombinant barcode read abundance (log10)” value was 0.108.
In the case of “CTTGGTTCTTGGGTTCTAACCTGTTGCCT (site CTTGGTTCTAG)”, the “recombinant barcode read abundance (log10)” value is reported as 0.33.
In the case of “CTTTAAGCTTGGGTTCTAACCTGTTGCTA (site ACCGTTCCTAG)”, the “recombinant barcode read abundance (log10)” value is reported as 0.0964.
In the case of “CTTTAAGCTTGGGTTCTAACCTGTTGCTA (site CTTTAAGCTTA)”, the “recombinant barcode read abundance (log10)” value is reported as 0.195.
In the case of “CTTTAATCTTGGGTTCTAACCTGTTGCCT (site CTTAAATCTAG)”, the “recombinant barcode read abundance (log10)” value is reported as 0.349.
For “CTTTAATCTTGGGTTCTAACCTGTTGCCT (site CTTCAATCTAG)”, the “recombinant barcode read abundance (log10)” value was 0.158.
With “CTTTAATCTTGGGTTCTAACCTGTTGCCT (site CTTGAATCTAG)” the “recombinant barcode read abundance (log10)” value was 0.0679.
For “CTTTAATCTTGGGTTCTAACCTGTTGCCT (site CTTTAATCTAG)”, the “recombinant barcode read abundance (log10)” value was 0.165.
In the case of “CTTTAGACTTGGGTTCTAACCTGTTGCAT (site CTCTAGACTAC)”, the “recombinant barcode read abundance (log10)” value is reported as 0.0162.
With “CTTTAGACTTGGGTTCTAACCTGTTGCAT (site CTTTAGACTAT)” the “recombinant barcode read abundance (log10)” value was 0.926.
In the case of “CTTTCCTCTTGGGTTCTAACCTGTTGCCT (site CATTCCTCTAG)”, the “recombinant barcode read abundance (log10)” value is reported as 0.153.
For “CTTTCCTCTTGGGTTCTAACCTGTTGCCT (site CCTTCCTCTAG)”, the “recombinant barcode read abundance (log10)” value was 0.0332.
In the case of “CTTTCCTCTTGGGTTCTAACCTGTTGCCT (site CGTTCCTCTAG)”, the “recombinant barcode read abundance (log10)” value is reported as 0.0618.
For “CTTTCCTCTTGGGTTCTAACCTGTTGCCT (site CTTTCCTCTAG)”, the “recombinant barcode read abundance (log10)” value was 0.831.
In the case of “CTTTCCTCTTGGGTTCTAACCTGTTGCTT (site CATTACTCTAA)”, the “recombinant barcode read abundance (log10)” value is reported as 0.2.
In the case of “CTTTCCTCTTGGGTTCTAACCTGTTGCTT (site CTTTCCTCTAA)”, the “recombinant barcode read abundance (log10)” value is reported as 0.92.
In the case of “CTTTCGTCTTGGGTTCTAACCTGTTGCCT (site CTTTCACCTAG)”, the “recombinant barcode read abundance (log10)” value is reported as 0.0235.
In the case of “CTTTCGTCTTGGGTTCTAACCTGTTGCCT (site CTTTCGTCTAG)”, the “recombinant barcode read abundance (log10)” value is reported as 0.0335.
For “CTTTGAGCTTGGGTTCTAACCTGTTGCAT (site CTTCGGGCTAT)”, the “recombinant barcode read abundance (log10)” value was 0.0604.
In the case of “CTTTGAGCTTGGGTTCTAACCTGTTGCAT (site CTTTGAGCTAT)”, the “recombinant barcode read abundance (log10)” value is reported as 0.632.
For “CTTTGATCTTGGGTTCTAACCTGTTGCGT (site CATCGATCTAC)”, the “recombinant barcode read abundance (log10)” value was 0.0142.
In the case of “CTTTGATCTTGGGTTCTAACCTGTTGCGT (site CTTTGATCTAC)”, the “recombinant barcode read abundance (log10)” value is reported as 1.29.
For “GAAACAGCTTGGGTTCTAACCTGTTGCCT (site GAAACAGCTAG)”, the “recombinant barcode read abundance (log10)” value was 0.725.
For “GAAACAGCTTGGGTTCTAACCTGTTGCCT (site GACACAGCTAG)”, the “recombinant barcode read abundance (log10)” value was 0.0141.
In the case of “GAAACAGCTTGGGTTCTAACCTGTTGCCT (site GAGACAGCTAG)”, the “recombinant barcode read abundance (log10)” value is reported as 0.281.
In the case of “GAAACAGCTTGGGTTCTAACCTGTTGCCT (site GATACAGCTAG)”, the “recombinant barcode read abundance (log10)” value is reported as 0.158.
